{"source": "patent US20220135667A1", "about": "“THERAPEUTIC COMBINATIONS AND COMPOSITIONS FOR THE TREATMENT OF INFLAMMATORY BOWEL DISEASE (II)” (RIJSUNIVERSITEIT GRONINGEN, priority 2019, published 2022)", "system": "CD patients", "test": "prospective clinical intervention study of riboflavin in CD patients", "assay_type": "in vivo, human", "conditions": "100 mg riboflavin daily for 3 weeks", "experimental": "In a prospective clinical intervention study, 70 CD patients were included and divided into two groups with (active) and without (quiescent) evidence of mucosal inflammation (defined by fecal calprotectin (FC) cut-off value: 200 μg/g). Patients received 100 mg riboflavin daily for 3 weeks. Clinical disease activity (Harvey-Bradshaw Index: HBI), inflammatory biomarkers (including interleukin 2) as well as fecal microbial composition (including pathogenic Enterobacteriaceae including E. coli) were analyzed before and after riboflavin intervention.", "data": [{"smiles": "Cc1cc2nc3c(=O)[nH]c(=O)nc-3n(C[C@H](O)[C@H](O)[C@H](O)CO)c2cc1C", "note": "[riboflavin]", "values": [{"measurement": "fecal calprotectin", "setting": "patients with TNF-alpha inhibitor treatment (FIG. 4)", "value": "further reduction"}, {"measurement": "proinflammatory cytokine IL2", "setting": "patients with TNF-alpha inhibitor treatment (FIG. 5)", "value": "further reduction"}, {"measurement": "Enterobacteriaceae including E. coli (fecal microbial composition)", "setting": "patients with TNF-alpha inhibitor treatment (FIG. 6)", "value": "further reduction"}, {"measurement": "clinical disease activity (Harvey-Bradshaw Index: HBI)", "setting": "patients with TNF-alpha inhibitor treatment, both active and quiescent disease, before vs after (FIG. 1-3)", "value": "further reduced"}, {"measurement": "clinical disease activity (Harvey-Bradshaw Index: HBI)", "setting": "patients with mesalazine treatment (FIG. 1-3)", "value": "not the case (not as pronounced as)"}]}]}
